# “Also recorded” adds a separate entry of the source. Like-named read-outs stand apart in the source and are kept apart here. Peptide text beside a SMILES is read from it.
# Key:
# [1] = test system: healthy volunteers; assay: Study 06-013 dose-escalation, safety, tolerability and MTD, single i.v. or s.c. bolus in healthy subjects; format: in vivo, human
# Source text: Thirteen of 27 subjects included in this study experienced at least 1 treatment-emergent adverse event (TEAE) judged by the investigator as having either a possible, probable or definitive relation to the study medication. The most commonly reported related TEAEs being postural dizziness, nausea, and injection site erythema.
# [2] = test system: healthy subjects and colon and colorectal cancer patients; assay: Human safety data across the clinical studies (06-013, TIDE-09-04, TIDE-11-10); format: in vivo
# Source text: (§1) Safety data in humans are derived from two phase I dose-escalation studies and one phase II study, which included 202 human subjects (36 healthy subjects and 166 colon and colorectal cancer patients receiving 5-FU-based chemotherapy), 117 of whom received active treatment.
# (§2) In studies TIDE-09-04 and TIDE-11-10 the overall pattern of TEAEs was as expected for patients with cancer receiving chemotherapy. In both studies the safety profiles of elsiglutide and placebo were generally similar. More patients in the elsiglutide group reported TEAEs compared to patients in the placebo group, mostly due to injection site reactions in the elsiglutide group.
# [3] = test system: patients with colorectal cancer receiving 5-FU based chemotherapy (FOLFOX4 or FOLFIRI regimen); assay: Study TIDE-11-10 phase II proof of concept, prevention of chemotherapy induced diarrhea (CID); format: in vivo, human
# Description: (§3) The formulation used in clinical trials is a lyophilized sterile powder for s.c. administration after reconstitution with sterile water for injection. […] This study also included an evaluation of the levels of citrulline, an amino acid mainly produced by enterocytes, a decrease of which is indicative of an intestinal mucosal damage following chemotherapy. […] In addition, safety and tolerability of the administered repeated doses of elsiglutide were evaluated, and the pharmacokinetics (PK) of elsiglutide and its metabolites ZP2242 and ZP2712 were investigated in a subset of patients in each treatment arm.
# Methodology: This was a phase II, multicenter, double-blind, randomized, placebo-controlled, two-stage, proof of concept study with an interim futility analysis in colorectal cancer patients receiving 5-FU-based chemotherapy (FOLFOX4 or FOLFIRI) and administered elsiglutide subcutaneously (s.c.) for 4 consecutive days.
# (§4) 138 patients received a daily dose of 24 mg elsiglutide (or placebo practically identical in composition to the active study drug) via a single s.c. injection for 4 consecutive days, starting from the first day of chemotherapy administration. The patients were hospitalized at least until Day 3. Further visits were scheduled for Days 4, 5 and 15 and for a Follow-up Visit on Day 28-32. Safety and tolerability were monitored throughout the study.
# Diagnosis and Main Criteria for Inclusion: Female and male patients of at least 18 years of age with confirmed diagnosis of colorectal cancer and an Eastern Cooperative Oncology
# Group (ECOG) performance status ≦2, chemotherapy-naïve, and scheduled to receive a FOLFOX4 or FOLFIRI chemotherapy regimen.
# Efficacy: The endpoint of primary interest was: • Number of patients experiencing no diarrhea from Day 1 to Day 14
# Secondary endpoints were: • Proportion of patients experiencing grades ≧2 diarrhea at each day from Day 1 to Day 14 according to National Cancer Institute Common Terminology Criteria for Adverse Events (NCI-CTCAE v. 4.03); • Worst grade of diarrhea according to NCI-CTCAE at each day from Day 1 to Day 14; • Time to occurrence of diarrhea, defined as the first day in which a grade ≧1 diarrhea was assessed (from Day 1 to day 14); • Number of days with presence of grade ≧1 diarrhea (from Day 1 to Day 14); • Number of days with presence of grade ≧2 diarrhea (from Day 1 to Day 14); • Number of days with presence of at least one bowel movement accompanied by urgency (from Day 1 to 14); • Number of days with presence of at least one episode of fecal incontinence (from Day 1 to 14); • Proportion of patients who required i.v. fluids due to CID (from Day 1 to 14); • Proportion of patients who required changes to the primary therapy (chemotherapy dose reduction, delay or change to regimen) due to CID as of Day 2, Day 14 and as of Day 28; • Proportion of patients who used rescue medication (i.e. medication used for treatment of diarrhea) from Day 1 to Day 14.
# (§5) In addition, the proportion of patients who were limited concerning self-care Activities of Daily Living (ADL), the number of stools per day, the number of bowel movements accompanied by urgency per day, and the number of episodes of fecal incontinence per day were summarized for Day 1 to Day 14. Mean blood concentrations of citrulline (a biomarker for intestinal integrity, a decrease being indicative of an intestinal mucosal damage following chemotherapy) were summarized by treatment group for baseline, Day 5, and Day 15 including changes compared to baseline.
# [4] = test system: rats; assay: Preclinical 5-Fluorouracil (5-FU)-induced small intestinal atrophy and diarrhea in rats; conditions: 400 nmol/kg
# [5] = test system: citrulline; assay: Study TIDE-11-10 mean blood concentrations of citrulline (biomarker for intestinal integrity); format: in vivo, human
# Description: as §3, §5
# [6] = test system: patients with colorectal cancer receiving 5-FU based chemotherapy (FOLFOX4 or FOLFIRI regimen); assay: Study TIDE-11-10 safety (treatment-emergent adverse events); format: in vivo, human; conditions: elsiglutide group, 69 patients, 24 mg/day s.c. for 4 days
# Source text: as §2
# (§6) In study TIDE-09-04, out of the 28 treated patients (21 on active treatment and 7 on placebo), 9 (32.1%; 7 patients in elsiglutide group and 2 patients in placebo group) experienced at least one TEAE judged by the investigator to be at least possibly related to treatment. In study TIDE-11-10, out of the 138 treated patients (69 on elsiglutide and 69 on placebo), 8 (11.6%), all in the elsiglutide group, had at least one TEAE judged by the investigator to be at least possibly related to study-drug. The most frequent related TEAEs overall in both studies were injection site events (in particular injection site erythema and injection site pain) followed by constipation.
# as §4, with “The patients were hospitalized at least until Day 3. Further visits were scheduled for Days 4, 5 and 15 and for a Follow-up Visit on Day 28-32.” left out
# [7] = Clinical pharmacokinetics of elsiglutide and its metabolites (studies 06-013, TIDE-09-04, TIDE-11-10); conditions: for dose dependence of pharmacokinetics (Cmax and AUC increases proportional to dose): study TIDE-09-04, s.c. on 4 consecutive days
# Description: Data on human exposure to elsiglutide generated so far originate from three clinical trials, one performed in healthy subjects (study 06-013) and two in cancer patients (TIDE-09-04, TIDE-11-10). The main objective of the first two studies was the evaluation of the safety, tolerability and maximum tolerated dose (MTD) of ascending elsiglutide doses administered as s.c. (both studies) and i.v. (only study 06-013) bolus injections. In study 06-013 elsiglutide was administered as single i.v. or s.c. bolus, while in study TIDE-09-04 each dose was administered as s.c. bolus on 4 consecutive days. Study TIDE-11-10 was a phase II proof of concept study that mainly evaluated the efficacy of elsiglutide administered as 24 mg daily s.c. bolus injections for 4 consecutive days in preventing CID in patients with colorectal cancer receiving 5-FU based chemotherapy (FOLFOX4 or FOLFIRI regimen). The secondary objectives of all three studies included the evaluation of the pharmacokinetics of elsiglutide and its major metabolites in humans.
# [8] = test system: cancer patients receiving 5-FU-based chemotherapy; assay: Study TIDE-09-04 dose-escalation, safety and tolerability, s.c. bolus on 4 consecutive days in cancer patients; format: in vivo, human
# Source text: as §1
# In the second dose-escalation study (TIDE-09-04) in cancer patients an independent data safety monitoring board supervised the dose escalation process.
# as §6
# [9] = test system: rats; assay: Preclinical irinotecan-induced diarrhea and intestinal damage in rats
# [10] = GLP-2(1-33); DPP IV degradation and renal clearance; cited from earlier work
# [11] = Day 1 to Day 14, Full Analysis Set, 24 mg/day, N = 69
# [12] = Day 1 to Day 14, Intent-to-treat Set, 24 mg/day, N = 69
compound,measurement,setting,value
CC[C@H](C)[C@H](NC(=O)[C@H](CC(C)C)NC(=O)[C@H](Cc1c[nH]c2ccccc12)NC(=O)[C@H](C)NC(=O)[C@@H](NC(=O)[C@H](Cc1ccccc1)NC(=O)[C@H](CC(=O)O)NC(=O)[C@H](CCCNC(=N)N)NC(=O)[C@H](C)NC(=O)[C@H](C)NC(=O)[C@H](CC(C)C)NC(=O)[C@H](C)NC(=O)[C@H](CC(=O)O)NC(=O)[C@H](CC(C)C)NC(=O)[C@@H](NC(=O)[C@@H](NC(=O)[C@H](CO)NC(=O)[C@H](CC(C)C)NC(=O)[C@H](CCC(=O)O)NC(=O)[C@H](CO)NC(=O)[C@H](CO)NC(=O)[C@H](Cc1ccccc1)NC(=O)[C@H](CO)NC(=O)CNC(=O)[C@H](CCC(=O)O)NC(=O)CNC(=O)[C@@H](N)Cc1c[nH]cn1)[C@@H](C)O)[C@@H](C)CC)[C@@H](C)CC)C(=O)N[C@@H](C)C(=O)N[C@H](C(=O)N[C@@H](CCCCN)C(=O)N[C@H](C(=O)N[C@H](C(=O)N[C@@H](CC(=O)O)C(=O)N[C@@H](CCCCN)C(=O)N[C@@H](CCCCN)C(=O)N[C@@H](CCCCN)C(=O)N[C@@H](CCCCN)C(=O)N[C@@H](CCCCN)C(=O)N[C@@H](CCCCN)C(N)=O)[C@@H](C)O)[C@@H](C)CC)[C@@H](C)O [elsiglutide] (H-HGEGSFSSELSTILDALAARDFIAWLIATKITDKKKKKK-NH2; N-terminus assumed),"subjects with at least 1 TEAE with possible, probable or definitive relation to study medication","[1]; of 27 subjects, study 06-013",Thirteen
same,maximum tolerated dose (MTD) i.v.,"[1]; single i.v. bolus, healthy volunteers, stopping-rule AE at 19.2 mg i.v.",9.6 mg
same,maximum tolerated dose (MTD) s.c.,"[1]; single s.c. bolus, healthy volunteers, stopping-rule AE at 6 mg s.c.",3 mg
same,deaths or SAEs related to the study drug,[2]; all three studies,No deaths or SAEs related to the study drug
same,serious or severe injection site reactions,[2]; studies TIDE-09-04 and TIDE-11-10,No serious or severe injection site reactions
same,effect on the occurrence of grade ≧2 diarrhea,[3]; 24 mg daily s.c. for 4 consecutive days,preventive effect
same,evidence of efficacy,[3]; 24 mg/day s.c. on 4 consecutive days,some evidence of efficacy
same,"Worst grade of diarrhea NCI-CTCAE v4.03: Grade 0, %",[3]; [11],(62.3) %
same,"Worst grade of diarrhea NCI-CTCAE v4.03: Grade 1, %",[3]; [11],(30.4) %
same,"Worst grade of diarrhea NCI-CTCAE v4.03: Grade 2, %",[3]; [11],(5.8) %
same,"Worst grade of diarrhea NCI-CTCAE v4.03: Grade 3, %",[3]; [11],(1.4) %
same,"Worst grade of diarrhea NCI-CTCAE v4.03: Grade <2, %",[3]; [11],(92.8) %
same,"Worst grade of diarrhea NCI-CTCAE v4.03: Grade ≧2, %",[3]; [11],(7.2) %
same,"Non-responders, %",[3]; [12],(37.7) %
same,"Responders (patients experiencing no diarrhea), %",[3]; [12],(62.3) %
same,superiority of elsiglutide over placebo in number of responders,"[3]; overall trial, Stage 1 and Stage 2, 69 patients per group",could not be statistically demonstrated
same,5-Fluorouracil (5-FU)-induced small intestinal atrophy and diarrhea,[4],prevents
same,body weight loss (5-FU model),[4],attenuates
same,mortality (5-FU model),[4],decreases
same,"change of mean citrulline level between Baseline and Day 5, compared with placebo group",[5]; Baseline to Day 5,less pronounced decrease
same,Mean citrulline level at Day 15,"[5]; Day 15, elsiglutide group, 24 mg/day on days 1-4",36.5 µmol/L
same,Mean citrulline level at baseline,"[5]; baseline, elsiglutide group",33.5 µmol/L
same,patients with at least one TEAE at least possibly related to study-drug (number),[6],8 patients
same,patients with at least one TEAE at least possibly related to study-drug (percentage),[6],11.6%
same,half-life,"[7]; human, plasma, iv",0.4 h
same,bioavailability,"[7]; human, plasma, subcutaneous",0.29
same,dose dependence of pharmacokinetics (Cmax and AUC increases proportional to dose),[7],dose independent
same,dose limiting toxicities,[8]; 93 mg/day administered for 4 consecutive days,no dose limiting toxicity; also recorded: no dose limiting toxicities
same,patients with at least one TEAE at least possibly related to treatment,"[8]; elsiglutide group, 21 on active treatment, TIDE-09-04",7 patients
same,body weight loss and lethality (irinotecan model),[9],decreases
same,irinotecan induced severe intestinal damage (histopathological observations),[9],drastically reduces
same,"severity of irinotecan-induced diarrhea, including late-onset diarrhea",[9],decreases
CC[C@H](C)[C@H](NC(=O)[C@H](CC(C)C)NC(=O)[C@H](Cc1c[nH]c2ccccc12)NC(=O)[C@H](C)NC(=O)[C@@H](NC(=O)[C@H](Cc1ccccc1)NC(=O)[C@H](CC(=O)O)NC(=O)[C@H](CCCNC(=N)N)NC(=O)[C@H](C)NC(=O)[C@H](C)NC(=O)[C@H](CC(C)C)NC(=O)[C@H](C)NC(=O)[C@H](CC(=O)O)NC(=O)[C@H](CC(C)C)NC(=O)[C@@H](NC(=O)[C@@H](NC(=O)[C@H](CO)NC(=O)[C@H](CC(C)C)NC(=O)[C@H](CCC(=O)O)NC(=O)[C@H](CO)NC(=O)[C@H](CO)NC(=O)[C@H](Cc1ccccc1)NC(=O)[C@H](CO)NC(=O)CNC(=O)[C@H](CCC(=O)O)NC(=O)CNC(=O)[C@@H](N)Cc1c[nH]cn1)[C@@H](C)O)[C@@H](C)CC)[C@@H](C)CC)C(=O)N[C@@H](C)C(=O)N[C@H](C(=O)N[C@@H](CCCCN)C(=O)N[C@H](C(=O)N[C@H](C(=O)N[C@@H](CC(=O)O)C(=O)N[C@@H](CCCCN)C(=O)N[C@@H](CCCCN)C(=O)O)[C@@H](C)O)[C@@H](C)CC)[C@@H](C)O [ZP2712] (H-HGEGSFSSELSTILDALAARDFIAWLIATKITDKK-OH; N-terminus assumed),exposure to metabolite relative to exposure to the parent ZP1846 (elsiglutide),[7]; Day 1,> 4 fold
same,half-life,"[7]; human, plasma",6 to 9 h
same,dose dependence of pharmacokinetics (Cmax and AUC increases proportional to dose),[7],dose independent
HADGSFSDEMNTILDNLAARDFINWLIQTKITD [GLP-2],half-life,[10],about 7 minutes

# From patent publication US20160067311A1, “USE OF ELSIGLUTIDE TO TREAT GASTROINTESTINAL MUCOSITIS INCLUDING CHEMOTHERAPY-INDUCED DIARRHEA” (Helsinn Healthcare SA, priority 2014, published 2016)
